In brackets after ≈: the same amount, converted by molar mass.
How the values were obtained:
Adenosine receptor A2a [1] = target: T1, Adenosine receptor A2a (Homo sapiens, UniProt P29274); experiment: Displacement of radioligand from human adenosine A2A receptor at 1000 nM relative to control
Adenosine receptor A2a [2] = target: T1, Adenosine receptor A2a; experiment: Antagonist activity at human adenosine A2A receptor
Cytochrome P450 2C19 = Cytochrome P450 2C19 (Homo sapiens, UniProt P33261); experiment: Inhibition of CYP2C19 (unknown origin); assay type: ADME
Sequence of Cytochrome P450 2C19 (P33261 whole entry): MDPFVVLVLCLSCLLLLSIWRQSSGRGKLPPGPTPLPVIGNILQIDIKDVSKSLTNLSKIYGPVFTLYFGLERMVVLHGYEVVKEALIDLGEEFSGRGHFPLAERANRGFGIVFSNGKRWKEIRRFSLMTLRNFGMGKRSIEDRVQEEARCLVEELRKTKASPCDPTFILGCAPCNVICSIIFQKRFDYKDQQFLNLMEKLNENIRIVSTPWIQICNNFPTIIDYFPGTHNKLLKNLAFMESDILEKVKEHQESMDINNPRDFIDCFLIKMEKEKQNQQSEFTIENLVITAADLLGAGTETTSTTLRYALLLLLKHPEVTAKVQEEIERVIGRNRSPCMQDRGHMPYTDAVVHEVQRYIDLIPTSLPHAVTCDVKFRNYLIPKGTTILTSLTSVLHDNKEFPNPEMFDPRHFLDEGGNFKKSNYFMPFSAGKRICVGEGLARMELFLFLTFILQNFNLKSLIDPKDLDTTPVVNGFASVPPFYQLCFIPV

Cytochrome P450 1A2 = target: T2, Cytochrome P450 1A2 (Homo sapiens, UniProt P05177); experiment: Inhibition of CYP1A2 (unknown origin); assay type: ADME
T2 sequence (P05177 whole entry): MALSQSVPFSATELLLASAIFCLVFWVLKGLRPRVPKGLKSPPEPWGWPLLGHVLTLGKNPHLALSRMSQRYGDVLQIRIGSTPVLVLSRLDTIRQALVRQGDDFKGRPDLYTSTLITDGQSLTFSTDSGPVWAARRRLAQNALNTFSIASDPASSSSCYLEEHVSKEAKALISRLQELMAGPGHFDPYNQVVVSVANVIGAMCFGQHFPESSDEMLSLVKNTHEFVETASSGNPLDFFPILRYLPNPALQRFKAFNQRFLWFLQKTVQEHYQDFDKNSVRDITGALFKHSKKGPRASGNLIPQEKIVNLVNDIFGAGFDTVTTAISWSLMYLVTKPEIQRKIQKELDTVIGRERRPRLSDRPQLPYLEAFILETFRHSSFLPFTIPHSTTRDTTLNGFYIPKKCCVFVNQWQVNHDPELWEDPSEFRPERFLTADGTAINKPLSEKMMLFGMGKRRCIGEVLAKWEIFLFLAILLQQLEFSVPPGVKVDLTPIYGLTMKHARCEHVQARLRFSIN

Cytochrome P450 2C9 = Cytochrome P450 2C9 (Homo sapiens, UniProt P11712); experiment: Inhibition of CYP2C9 (unknown origin); assay type: ADME
Sequence of Cytochrome P450 2C9 (P11712 whole entry): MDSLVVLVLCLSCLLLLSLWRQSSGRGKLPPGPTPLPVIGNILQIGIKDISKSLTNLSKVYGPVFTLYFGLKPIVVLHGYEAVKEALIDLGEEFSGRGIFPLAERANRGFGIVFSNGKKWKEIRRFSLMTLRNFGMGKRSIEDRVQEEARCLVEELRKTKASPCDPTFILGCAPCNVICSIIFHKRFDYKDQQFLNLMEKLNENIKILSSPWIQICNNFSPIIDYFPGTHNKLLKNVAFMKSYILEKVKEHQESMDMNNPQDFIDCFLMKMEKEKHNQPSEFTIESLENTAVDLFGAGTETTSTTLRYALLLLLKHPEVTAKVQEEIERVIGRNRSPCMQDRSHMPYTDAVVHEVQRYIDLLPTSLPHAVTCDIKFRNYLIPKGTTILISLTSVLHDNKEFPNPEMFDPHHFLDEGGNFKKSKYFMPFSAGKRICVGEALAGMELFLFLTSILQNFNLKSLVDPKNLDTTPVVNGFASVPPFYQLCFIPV

[3] = Intrinsic clearance in human liver microsomes; assay type: ADME; conditions: read-out: CLH (converted)
Cytochrome P450 3A4 = Cytochrome P450 3A4 (Homo sapiens, UniProt P08684); experiment: Inhibition of CYP3A4 (unknown origin); assay type: ADME
Sequence of Cytochrome P450 3A4 (P08684 whole entry): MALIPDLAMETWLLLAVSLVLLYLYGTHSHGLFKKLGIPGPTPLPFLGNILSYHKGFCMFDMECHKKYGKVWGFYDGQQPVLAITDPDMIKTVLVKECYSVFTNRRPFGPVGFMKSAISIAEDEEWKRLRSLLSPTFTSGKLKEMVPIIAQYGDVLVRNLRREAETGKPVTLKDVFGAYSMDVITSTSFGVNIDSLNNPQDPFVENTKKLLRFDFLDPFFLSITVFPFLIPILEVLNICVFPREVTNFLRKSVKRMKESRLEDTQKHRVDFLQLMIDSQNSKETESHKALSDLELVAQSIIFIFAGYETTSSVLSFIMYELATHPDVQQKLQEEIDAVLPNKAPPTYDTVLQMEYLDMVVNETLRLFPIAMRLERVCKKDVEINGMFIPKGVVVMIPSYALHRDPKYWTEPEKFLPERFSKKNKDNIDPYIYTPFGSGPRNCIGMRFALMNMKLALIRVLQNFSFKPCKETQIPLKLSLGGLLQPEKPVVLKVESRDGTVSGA

Cytochrome P450 2D6 = Cytochrome P450 2D6 (Homo sapiens, UniProt P10635); experiment: Inhibition of CYP2D6 (unknown origin); assay type: ADME
Sequence of Cytochrome P450 2D6 (P10635 whole entry): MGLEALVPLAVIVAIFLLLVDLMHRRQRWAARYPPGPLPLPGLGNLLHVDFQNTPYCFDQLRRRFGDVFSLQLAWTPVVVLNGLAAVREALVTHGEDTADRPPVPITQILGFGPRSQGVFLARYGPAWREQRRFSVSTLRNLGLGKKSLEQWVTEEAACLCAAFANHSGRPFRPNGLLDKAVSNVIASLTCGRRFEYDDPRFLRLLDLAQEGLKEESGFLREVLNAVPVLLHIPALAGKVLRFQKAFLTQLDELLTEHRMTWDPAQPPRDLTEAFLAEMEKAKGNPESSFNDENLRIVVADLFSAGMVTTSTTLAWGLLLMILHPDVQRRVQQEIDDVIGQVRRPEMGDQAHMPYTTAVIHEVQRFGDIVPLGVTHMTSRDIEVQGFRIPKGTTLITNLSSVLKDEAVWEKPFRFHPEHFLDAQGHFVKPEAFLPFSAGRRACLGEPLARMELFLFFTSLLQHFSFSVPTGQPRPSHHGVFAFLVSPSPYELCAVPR

[4] = Aqueous solubility of the compound at pH 7.4; assay type: physicochemical; conditions: buffer
[5] = Aqueous solubility of the compound; assay type: physicochemical; conditions: buffer

T1 sequence (P29274 whole entry): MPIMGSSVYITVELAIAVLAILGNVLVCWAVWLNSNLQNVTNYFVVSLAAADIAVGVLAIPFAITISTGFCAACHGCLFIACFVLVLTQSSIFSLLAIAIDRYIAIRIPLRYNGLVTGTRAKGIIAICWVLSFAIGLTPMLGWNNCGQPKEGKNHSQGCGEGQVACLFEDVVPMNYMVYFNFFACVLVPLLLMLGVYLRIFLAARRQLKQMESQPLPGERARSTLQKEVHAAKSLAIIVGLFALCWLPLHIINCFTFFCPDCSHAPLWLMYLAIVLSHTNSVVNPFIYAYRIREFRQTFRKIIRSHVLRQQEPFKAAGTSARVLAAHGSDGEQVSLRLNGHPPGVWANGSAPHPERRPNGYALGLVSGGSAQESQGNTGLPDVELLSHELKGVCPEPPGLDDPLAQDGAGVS

Cc1cc(C(=O)Nc2nccs2)ccc1NC(=O)CN(C)C
inhibition (Adenosine receptor A2a [1]): 1%

CCN(CC)CCCCCCCC(=O)Nc1ccc(C(=O)Nc2nccs2)cc1
Ki (Adenosine receptor A2a [2]): 130 nM

CC(C)(C)CC(=O)Nc1ccc(C(=O)Nc2nccs2)cn1
inhibition (Adenosine receptor A2a [1]): 30%

CCN(CC)CCCCCC(=O)Nc1ccc(C(=O)Nc2nccs2)cc1
Ki (Adenosine receptor A2a [2]): 240 nM

CC(C)CCNc1ccc(C(=O)Nc2nccs2)cc1
Ki (Adenosine receptor A2a [2]): 730 nM

Cc1cc(C(=O)Nc2nccs2)ccc1NC(=O)CC(C)(C)C
Ki (Adenosine receptor A2a [2]): 67 nM

CC(CCN1CCOCC1)CC(=O)Nc1ccc(C(=O)Nc2nccs2)cc1 (centres undefined)
IC50 (Cytochrome P450 2C19): > 40000 nM
IC50 (Cytochrome P450 1A2): > 40000 nM
IC50 (Cytochrome P450 2C9): > 40000 nM
CLint scaled [3]: 10.3 mL/min/kg
Ki (Adenosine receptor A2a [2]): 110 nM
IC50 (Cytochrome P450 3A4): > 40000 nM
IC50 (Cytochrome P450 2D6): 18000 nM
solubility [4]: 116 µg/mL (≈ 288 µM)

CC(C)(O)CC(=O)Nc1ccc(C(=O)Nc2nccs2)cc1
Ki (Adenosine receptor A2a [2]): 1100 nM

O=C(CC1CCCC1)Nc1ccc(C(=O)Nc2nccs2)cc1
Ki (Adenosine receptor A2a [2]): 67 nM

CC(C)CC(=O)Nc1ccc(C(=O)Nc2nccs2)cc1
Ki (Adenosine receptor A2a [2]): 59 nM

O=C(CC1CCNC1)Nc1ccc(C(=O)Nc2nccs2)cc1 (centres undefined)
Ki (Adenosine receptor A2a [2]): > 2100 nM

CC(C)(C)CC(=O)Nc1ccc(CNc2nccs2)cc1
Ki (Adenosine receptor A2a [2]): > 6000 nM

O=C(CC1CCCN1)Nc1ccc(C(=O)Nc2nccs2)cc1 (centres undefined)
Ki (Adenosine receptor A2a [2]): 6600 nM

CC(C)(C)CC(=O)Nc1ccc(C(=O)Nc2nccs2)nc1
solubility [5]: 10 µg/mL (≈ 31.4 µM)
Ki (Adenosine receptor A2a [2]): 300 nM

CCN(CC)CCC(C)CC(=O)Nc1ccc(C(=O)Nc2nccs2)cc1 (centres undefined)
Ki (Adenosine receptor A2a [2]): 110 nM

CCN(CC)CCCCC(=O)Nc1ccc(C(=O)Nc2nccs2)cc1
Ki (Adenosine receptor A2a [2]): 830 nM
